The first test has as its system A375 cell line. Kind of test: Alamar Blue cell viability assay, A375. The conditions noted are these: Homo sapiens, A-375, 96 h, read-out: Pharmaceutical activity in A375 cell line IC50. It counts as cell-based. On the procedure: Inhibitory activity on cell proliferation of representative compounds of the invention was determined using an Alamar Blue cell viability assay as described hereafter.
3000 cancer cells in 100 uL of cell culture media were plated in each well of a 96-well clear bottom, black wall cell culture-pretreated plate.
The next day compounds are serially diluted (3-fold in cell culture media) across a 96-well polypropylene mother plate from row A to row F, to yield 6 concentrations (10 uM, 3.3 uM, 1.1 uM, 370 nM, 124 nM and 41 nM) for each test compound. Rows G and H contain only DMSO.
Once titrations are made, the media in plates with cells were disposed and 100 μL of drug dilutions are transferred to plates with cells. After a ninety six-hour incubation at 37° C., 10 uL of resazurin solution from Alamar Blue Cell Viability kit (Invitrogen, Carlsbad, Calif.) was added to the media and cells were incubated at 37° C. for three more hours. At the end of this incubation the production of resofurin was measured using Spectrmax M2 microplate reader (Molecular Devices, Sunnyvale, Calif.)
(The colour change of resazurin is a common sign of viable cells or microbes.)
Regarding `CC(C)NC(=O)c1cc2ccc(N3CCN(C)CC3)nc2n2c1nc1ccccc12` [Compound 5D], the IC50 lay within 5 to 10 µM.

For the compound `CC(C)NC(=O)c1cc2ccc(N3CCCNCC3)nc2n2c1nc1ccccc12` [Compound 9B, 2-[1,4]Diazepan-1-yl-1,7,11b-triaza-benzo[c]fluorene-6-carboxylic acid isopropylamide], the half-maximal inhibitory concentration (IC50) lay within 1 to 5 µM.

Staying with this test, now noted: Homo sapiens, A-375; Table 4; cell proliferation inhibition, Alamar Blue, 96 h incubation; read-out: Pharmaceutical activity in A375 cell line IC50.
Take `CN1CCCN(c2ccc3cc(C#N)c4nc5ccccc5n4c3n2)CC1` [Compound 3C, 2-(4-Methyl-[1,4]diazepan-1-yl)-1,7,11b-triaza-benzo[c]fluorene-6-carbonitrile]: the IC50 is less than 1 µM. The same measure, in the same setting: the result for `N#Cc1cc2ccc(N3CCCNCC3)nc2n2c1nc1ccccc12` [Compound 3D, 2-[1,4]Diazepan-1-yl-1,7,11b-triaza-benzo[c]fluorene-6-carbonitrile] reads less than 1 µM; that for `N#Cc1cc2ccc(NCCN3CCOCC3)nc2n2c1nc1ccccc12` [Compound 3E, 2-(2-Morpholin-4-yl-ethylamino)-1,7,11b-triaza-benzo[c]fluorene-6-carbonitrile], 1 to 5 µM.

Consider `CN(C)C1CCN(c2ccc3cc(C#N)c4nc5ccccc5n4c3n2)C1` (stereo not drawn) [Compound 3F, 2-(3-Dimethylamino-pyrrolidin-1-yl)-1,7,11b-triaza-benzo[c]fluorene-6-carbonitrile], for which the IC50 is less than 1 µM. Still for that read-out and setting: the result for `N#Cc1cc2ccc(NCCn3ccnc3)nc2n2c1nc1ccccc12` [Compound 3G, 2-(2-Imidazol-1-yl-ethylamino)-1,7,11b-triaza-benzo[c]fluorene-6-carbonitrile] reads 1 to 5 µM; that for `CN1CCN(c2ccc3cc(C#N)c4nc5ccccc5n4c3n2)CC1` [Compound 3H, 2-(4-Methyl-piperazin-1-yl)-1,7,11b-triaza-benzo[c]fluorene-6-carbonitrile], less than 1 µM. The same measure, in the same setting: the result for `COCCNc1ccc2cc(C#N)c3nc4ccccc4n3c2n1` [Compound 3I, 2-(2-Methoxy-ethylamino)-1,7,11b-triaza-benzo[c]fluorene-6-carbonitrile] reads 1 to 5 µM; that for `CN1CCCN(c2ccc3cc(C(=O)Nc4nccs4)c4nc5ccccc5n4c3n2)CC1` [Compound 4A], 5 to 10 µM; that for `CN1CCCN(c2ccc3cc(C(=O)NC#N)c4nc5ccccc5n4c3n2)CC1` [Compound 4C], less than 1 µM. `CNNC(=O)c1cc2ccc(N3CCCN(C)CC3)nc2n2c1nc1ccccc12` [Compound 4D, 2-(4-Methyl-[1,4]diazepan-1-yl)-1,7,11b-triaza-benzo[c]fluorene-6-carboxylic acid N′-methyl-hydrazide]: the IC50 was less than 1 µM. Still for that read-out and setting: the value for `[2H]C([2H])([2H])NC(=O)c1cc2ccc(N3CCCN(C)CC3)nc2n2c1nc1ccccc12` [Compound 4E, 2-(4-Methyl-[1,4]diazepan-1-yl)-1,7,11b-triaza-benzo[c]fluorene-6-carboxylic acid methyl-d3-amide] was 1 to 5 µM. Still for that read-out and setting: the value for `CONC(=O)c1cc2ccc(N3CCCN(C)CC3)nc2n2c1nc1ccccc12` [Compound 4F, 2-(4-Methyl-[1,4]diazepan-1-yl)-1,7,11b-triaza-benzo[c]fluorene-6-carboxylic acid methoxy-amide] was less than 1 µM; that for `CN1CCN(c2ccc3cc(C(=O)NN)c4nc5ccccc5n4c3n2)CC1` [Compound 5B] was 5 to 10 µM. As for `CNC(=O)c1cc2ccc(N3CCN(C)CC3)nc2n2c1nc1ccccc12` [Compound 5C], the IC50 lay in the range of 1 to 5 µM. Consider `CN1CCN(c2ccc3cc(C(=O)NC4CC4)c4nc5ccccc5n4c3n2)CC1` [Compound 5E, 2-(4-Methyl-piperazin-1-yl)-1,7,11b-triaza-benzo[c]fluorene-6-carboxylic acid cyclopropylamide], for which the IC50 is 1 to 5 µM. Take `CNC(=O)c1cc2ccc(N3CCC[N+](C)(C)CC3)nc2n2c1nc1ccccc12` [Compound 6A, 1,1-Dimethyl-4-(6-methylcarbamoyl-1,7,11b-triaza-benzo[c]fluoren-2-yl)-[1,4]diazepan-1-ium; iodide]: the IC50 is 5 to 10 µM. In the case of `O=C(O)c1cc2cc(F)cnc2n2c1nc1ccccc12` [Compound 7B, 3-Fluoro-1,7,11b-triaza-benzo[c]fluorene-6-carboxylic acid], the half-maximal inhibitory concentration (IC50) is more than 10 µM. Still for that read-out and setting: the result for `CN1CCCN(C(=O)c2cc3cc(F)cnc3n3c2nc2ccccc23)CC1` [Compound 7C, (3-Fluoro-1,7,11b-triaza-benzo[c]fluoren-6-yl)-(4-methyl-[1,4]diazepan-1-yl)-methanone] reads more than 10 µM; that for `O=C(c1cc2cc(F)cnc2n2c1nc1ccccc12)N1CCCNCC1` [Compound 7D, [1,4]Diazepan-1-yl-(3-fluoro-1,7,11b-triaza-benzo[c]fluoren-6-yl)-methanone], more than 10 µM; that for `CN(C)CCNC(=O)c1cc2cc(F)cnc2n2c1nc1ccccc12` [Compound 7F, 3-Fluoro-1,7,11b-triaza-benzo[c]fluorene-6-carboxylic acid (2-dimethylamino-ethyl)-amide], 1 to 5 µM.

For the compound `O=C(NCCN1CCOCC1)c1cc2cc(F)cnc2n2c1nc1ccccc12` [Compound 7G, 3-Fluoro-1,7,11b-triaza-benzo[c]fluorene-6-carboxylic acid (2-morpholin-4-yl-ethyl)-amide], the IC50 was more than 10 µM. Same read-out and setting: the value for `O=C(NCCN1CCCC1)c1cc2cc(F)cnc2n2c1nc1ccccc12` [Compound 7I, 3-Fluoro-1,7,11b-triaza-benzo[c]fluorene-6-carboxylic acid (2-pyrrolidin-1-yl-ethyl)-amide] was 1 to 5 µM. With `CNC(=O)c1cc2c(N3CCCN(C)CC3)ccnc2n2c1nc1ccccc12` [Compound 8B, 4-(4-Methyl-[1,4]diazepan-1-yl)-1,7,11b-triaza-benzo[c]fluorene-6-Carboxylic acid methylamide], the IC50 was less than 1 µM. Still for that read-out and setting: the result for `CNC(=O)c1cc2c(N3C[C@@H](C)N[C@@H](C)C3)ccnc2n2c1nc1ccccc12` [Compound 8D] reads less than 1 µM; that for `Cc1nnc(-c2cc3ccc(N4CCCN(C)CC4)nc3n3c2nc2ccccc23)o1` [Compound 10E, 2-(4-Methyl-[1,4]diazepan-1-yl)-6-(5-methyl-[1,3,4]oxadiazol-2-yl)-1,7,11b-triaza-benzo[c]fluorine], less than 1 µM; that for `NNC(=O)c1cc2ccc(NCCN3CCOCC3)nc2n2c1nc1ccccc12` [Compound 11C, 2-(2-Morpholin-4-yl-ethylamino)-1,7,11b-triaza-benzo[c]fluorene-6-carboxylic acid hydrazide], 5 to 10 µM. Take `CNC(=O)c1cc2ccc(NCCN3CCOCC3)nc2n2c1nc1ccccc12` [Compound 11D, 2-(2-Morpholin-4-yl-ethylamino)-1,7,11b-triaza-benzo[c]fluorene-6-carboxylic acid methylamide]: the IC50 was in the range of 1 to 5 µM. On the same count and under the same terms, the result for `CN(C)CCNc1ccc2cc(C(=O)NN)c3nc4ccccc4n3c2n1` [Compound 12B, 2-(2-Dimethylamino-ethylamino)-1,7,11b-triaza-benzo[c]fluorene-6-carboxylic acid hydrazide] reads 1 to 5 µM; that for `CNC(=O)c1cc2ccc(NCCN(C)C)nc2n2c1nc1ccccc12` [Compound 12C, 2-(2-Dimethylamino-ethylamino)-1,7,11b-triaza-benzo[c]fluorene-6-carboxylic acid methylamide], less than 1 µM; that for `CC(C)NC(=O)c1cc2cnccc2n2c1nc1ccccc12` [Compound 13C, 3,7,11b-Triaza-benzo[c]fluorene-6-carboxylic acid isopropylamide], 5 to 10 µM. Same read-out and setting: the result for `CN(C)CCNC(=O)c1cc2cnccc2n2c1nc1ccccc12` [Compound 13D, 3,7,11b-Triaza-benzo[c]fluorene-6-carboxylic acid (2-dimethylamino-ethyl)-amide] reads less than 1 µM; that for `COCCCNC(=O)c1cc2cnccc2n2c1nc1ccccc12` [Compound 13E, 3,7,11b-Triaza-benzo[c]fluorene-6-carboxylic acid (3-methoxy-propyl)-amide], 5 to 10 µM.

The same test, now with this note: Homo sapiens, A-375; cell proliferation inhibition, Alamar Blue, 96 h incubation; read-out: Pharmaceutical activity IC50 A375.
As to `CC(C)NC(=O)c1cc2ccc(N3CCCN(C)CC3)nc2n2c1nc1ccccc12` [Compound 2A, 2-(4-methyl-[1,4]diazepan-1-yl)-1,7,11b-triazabenzo[c]fluorene-6-carboxylic acid isopropylamide], the IC50 was 5 to 10 µM. Still for that read-out and setting: the value for `CC(NC(=O)c1cc2ccc(N3CCCN(C)CC3)nc2n2c1nc1ccccc12)C1CC1` (stereo not drawn) [Compound 2B, 2-(4-Methyl-[1,4]diazepan-1-yl)-1,7,11b-triazabenzo[c]fluorene-6-carboxylic acid (1-cyclopropylethyl)-amide] was 5 to 10 µM; that for `CN1CCCN(c2ccc3cc(C(=O)NC4CC4)c4nc5ccccc5n4c3n2)CC1` [Compound 2C, 2-(4-methyl-[1,4]diazepan-1-yl)-1,7,11b-triazabenzo[c]fluorene-6-carboxylic acid cyclopropylamide] was 1 to 5 µM; that for `CN1CCCN(c2ccc3cc(C(=O)NC4CCOCC4)c4nc5ccccc5n4c3n2)CC1` [Compound 2D, 2-(4-methyl-[1,4]diazepan-1-yl)-1,7,11b-triazabenzo[c]fluorene-6-carboxylic acid (tetrahydropyran-4-yl)-amide] was 1 to 5 µM. Still for that read-out and setting: the result for `CN1CCCN(c2ccc3cc(C(=O)NCC4(C)COC4)c4nc5ccccc5n4c3n2)CC1` [Compound 2F, 2-(4-Methyl-[1,4]diazepan-1-yl)-1,7,11b-triazabenzo[c]fluorene-6-carboxylic acid (3-methyloxetan-3-ylmethyl)-amide] reads 1 to 5 µM.

Usually IC50 stands for the point on the concentration scale where inhibition reaches its midpoint.

These data come from patent US9951066B2, “Compositions, uses and methods for making them” (Pimera, Inc., priority 2014, dated 2018).
